The values that follow come from patent US12110293B2, “Substituted triazolo quinoxaline derivatives” (GRÜNENTHAL GMBH, priority 2018, dated 2024).

Bounds are passed on as bounds.

The target in the experiment is T1, glucocorticoid receptor (Homo sapiens, UniProt P04150).
T1 construct: expressed in transfected cells
T1 sequence (P04150 524-758 limits assumed): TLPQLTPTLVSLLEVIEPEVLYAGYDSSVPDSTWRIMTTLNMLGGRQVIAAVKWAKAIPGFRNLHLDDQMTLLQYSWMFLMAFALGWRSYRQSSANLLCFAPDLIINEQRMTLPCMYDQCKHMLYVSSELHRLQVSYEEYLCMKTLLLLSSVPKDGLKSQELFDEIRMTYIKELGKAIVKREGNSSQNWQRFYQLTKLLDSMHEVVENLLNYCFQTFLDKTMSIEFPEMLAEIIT
In words: Agonistic mode of action on the glucocorticoid receptor (CHO-Gal4/GR luciferase reporter cell line). The following applies: range class observed in the agonistic assay or the antagonistic assay (CHO-Gal4/GR reporter cells); table does not say which mode applies per example. Format: cell-based. The method in brief:
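Agonism measured as dose-dependent luciferase luminescence (FLIPR Tetra) from a GAL4-UAS reporter driven by GAL4 DBD fused to GR ligand-binding domain in stable CHO cells. Eight half-log doses, 10 μM to 0.003 μM final in 0.5% DMSO, quadruplicate, on cells seeded 24 h earlier at 5000/well; EC50 derived.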
Consider `Cc1nnc2n1-c1c(cc(F)c(-c3cccc4c3cnn4C(=O)OC(C)(C)C)c1F)NC2(C)C` [Example 238, 4-(7,9-Difluoro-1,4,4-trimethyl-5H-[1,2,4]triazolo[4,3-a]quinoxalin-8-yl)-1H-indazole-1-carboxylic acid tert-butyl ester], for which the IC50 or EC50 (agonist or antagonist mode not specified) lay within 0.1 to 1 µM.
Consider `Cc1nnc2n1-c1c(cc(F)c(-c3cccc4c3cnn4S(=O)(=O)CC3CC3)c1F)NC2(C)C` [Example 239, 8-[1-(Cyclopropyl-methylsulfonyl)-1H-indazol-4-yl]-7,9-difluoro-1,4,4-trimethyl-5H-[1,2,4]triazolo[4,3-a]quinoxaline], for which the IC50 or EC50 (agonist or antagonist mode not specified) was 0.1 to 1 µM.
Regarding `CCc1nnc2n1-c1c(cc(F)c(-c3cccc4c3cnn4C)c1C)NC2(C)C` [Example 240, 1-Ethyl-7-fluoro-4,4,9-trimethyl-8-(1-methyl-1H-indazol-4-yl)-5H-[1,2,4]triazolo[4,3-a]quinoxaline], the IC50 or EC50 (agonist or antagonist mode not specified) lay within 1 to 15 µM.
As to `CCc1nnc2n1-c1c(cc(F)c(-c3cccc4c3cnn4C3CC3)c1C)NC2(C)C` [Example 242, 8-(1-Cyclopropyl-1H-indazol-4-yl)-1-ethyl-7-fluoro-4,4,9-trimethyl-5H-[1,2,4]triazolo[4,3-a]quinoxaline], the IC50 or EC50 (agonist or antagonist mode not specified) was in the range of 1 to 15 µM.
Next, `Cc1nnc2n1-c1c(cc(F)c(-c3cccc4c3cnn4C3CC3)c1F)NC2(C)C` [Example 243, 8-(1-Cyclopropyl-1H-indazol-4-yl)-7,9-difluoro-1,4,4-trimethyl-5H-[1,2,4]triazolo[4,3-a]quinoxaline]: 0.1 to 1 µM; `CCc1nnc2n1-c1c(cc(F)c(-c3c(F)ccc4[nH]ccc34)c1C)NC2(C)C` [Example 244, 1-Ethyl-7-fluoro-8-(5-fluoro-1H-indol-4-yl)-4,4,9-trimethyl-5H-[1,2,4]triazolo[4,3-a]quinoxaline]: 1 to 15 µM.
Next, `CCc1nnc2n1-c1c(cc(F)c(-c3cccc4c3ccn4S(C)(=O)=O)c1C)NC2(C)C` [Example 247, 1-Ethyl-7-fluoro-4,4,9-trimethyl-8-(1-methylsulfonyl-1H-indol-4-yl)-5H-[1,2,4]triazolo[4,3-a]quinoxaline]: 1 to 15 µM; `COc1c(-c2cccc3c2ccn3S(C)(=O)=O)c(F)cc2c1-n1c(C)nnc1C(C)(C)N2` [Example 248, 7-Fluoro-9-methoxy-1,4,4-trimethyl-8-(1-methylsulfonyl-1H-indol-4-yl)-5H-[1,2,4]triazolo[4,3-a]quinoxaline]: 0.1 to 1 µM.
In turn, `COc1c(-c2cc(F)cc3c(C)c[nH]c23)c(F)cc2c1-n1c(C)nnc1C(C)(C)N2` [Example 249, 7-Fluoro-8-(5-fluoro-3-methyl-1H-indol-7-yl)-9-methoxy-1,4,4-trimethyl-5H-[1,2,4]triazolo[4,3-a]quinoxaline] returned an IC50 or EC50 (agonist or antagonist mode not specified) of less than 0.1 µM.
In the case of `COc1c(-c2cc(F)cc3c2ccn3S(C)(=O)=O)c(F)cc2c1-n1c(C)nnc1C(C)(C)N2` [Example 250, 7-Fluoro-8-(6-fluoro-1-methylsulfonyl-1H-indol-4-yl)-9-methoxy-1,4,4-trimethyl-5H-[1,2,4]triazolo[4,3-a]quinoxaline], the IC50 or EC50 (agonist or antagonist mode not specified) is less than 0.1 µM.
Compound `COc1cc2c(c(F)c1-c1cc(F)cc3c(C)c[nH]c13)-n1c(C)nnc1C(C)(C)N2` [Example 251, 9-Fluoro-8-(5-fluoro-3-methyl-1H-indol-7-yl)-7-methoxy-1,4,4-trimethyl-5H-[1,2,4]triazolo[4,3-a]quinoxaline] yielded an IC50 or EC50 (agonist or antagonist mode not specified) of 0.1 to 1 µM.
Next, `Cc1nnc2n1-c1c(cc(OC(F)F)c(-c3cccc4[nH]c(C(F)(F)F)cc34)c1F)NC2(C)C` [Example 252, 7-(Difluoro-methoxy)-9-fluoro-1,4,4-trimethyl-8-[2-(trifluoromethyl)-1H-indol-4-yl]-5H-[1,2,4]triazolo[4,3-a]quinoxaline]: 0.1 to 1 µM.
Next, `Cc1nnc2n1-c1c(cc(F)c(-c3cccc4c3ccn4CC(F)F)c1F)NC2(C)C` [Example 253, 8-[1-(2,2-Difluoro-ethyl)-1H-indol-4-yl]-7,9-difluoro-1,4,4-trimethyl-5H-[1,2,4]triazolo[4,3-a]quinoxaline]: 0.1 to 1 µM.
Under `COc1cc2c(c(F)c1-c1cc(F)cc3c1ccn3S(C)(=O)=O)-n1c(C)nnc1C(C)(C)N2` [Example 255, 9-Fluoro-8-(6-fluoro-1-methylsulfonyl-1H-indol-4-yl)-7-methoxy-1,4,4-trimethyl-5H-[1,2,4]triazolo[4,3-a]quinoxaline] stands 1 to 15 µM.
As for `COc1cc2c(c(F)c1-c1cccc3[nH]ccc13)-n1c(C)nnc1C(C)(C)N2` [Example 256, 9-Fluoro-8-(1H-indol-4-yl)-7-methoxy-1,4,4-trimethyl-5H-[1,2,4]triazolo[4,3-a]quinoxaline], the IC50 or EC50 (agonist or antagonist mode not specified) is 1 to 15 µM.
With `COc1cc2c(c(F)c1-c1cccc3[nH]c(C(F)(F)F)cc13)-n1c(C)nnc1C(C)(C)N2` [Example 257, 9-Fluoro-7-methoxy-1,4,4-trimethyl-8-[2-(trifluoromethyl)-1H-indol-4-yl]-5H-[1,2,4]triazolo[4,3-a]quinoxaline], the IC50 or EC50 (agonist or antagonist mode not specified) fell in the range of 0.1 to 1 µM.
In turn, `COCCn1c(C(F)(F)F)cc2c(-c3c(OC(F)F)cc4c(c3F)-n3c(C)nnc3C(C)(C)N4)cccc21` [Example 259, 7-(Difluoro-methoxy)-9-fluoro-8-[1-(2-methoxy-ethyl)-2-(trifluoromethyl)-1H-indol-4-yl]-1,4,4-trimethyl-5H-[1,2,4]triazolo[4,3-a]quinoxaline] gave an IC50 or EC50 (agonist or antagonist mode not specified) of 1 to 15 µM.
Under `COc1c(-c2cccc3c2ccn3C(=O)OC(C)(C)C)c(F)cc2c1-n1c(C)nnc1C(C)(C)N2` [Example 260, 4-(7-Fluoro-9-methoxy-1,4,4-trimethyl-5H-[1,2,4]triazolo[4,3-a]quinoxalin-8-yl)-1H-indole-1-carboxylic acid tert-butyl ester] stands 0.1 to 1 µM; under `COc1cc2c(c(F)c1-c1cccc3c1ccn3S(C)(=O)=O)-n1c(C)nnc1C(C)(C)N2` [Example 263, 9-Fluoro-7-methoxy-1,4,4-trimethyl-8-(1-methylsulfonyl-1H-indol-4-yl)-5H-[1,2,4]triazolo[4,3-a]quinoxaline], 1 to 15 µM; under `COc1c(-c2cccc3c2cnn3C)c(F)cc2c1-n1c(C)nnc1C(C)(C)N2` [Example 264, 7-Fluoro-9-methoxy-1,4,4-trimethyl-8-(1-methyl-1H-indazol-4-yl)-5H-[1,2,4]triazolo[4,3-a]quinoxaline], 0.1 to 1 µM.
Under `COc1cc2c(c(F)c1-c1cccc3c(C)c[nH]c13)-n1c(C)nnc1C(C)(C)N2` [Example 266, 9-Fluoro-7-methoxy-1,4,4-trimethyl-8-(3-methyl-1H-indol-7-yl)-5H-[1,2,4]triazolo[4,3-a]quinoxaline] stands 0.1 to 1 µM; under `Cc1c[nH]c2c(-c3c(OC(F)F)cc4c(c3F)-n3c(C)nnc3C(C)(C)N4)cc(F)cc12` [Example 267, 7-(Difluoro-methoxy)-9-fluoro-8-(5-fluoro-3-methyl-1H-indol-7-yl)-1,4,4-trimethyl-5H-[1,2,4]triazolo[4,3-a]quinoxaline], 0.1 to 1 µM; under `Cc1nnc2n1-c1c(cc(OC(F)F)c(-c3cc(F)cc4c3ccn4S(C)(=O)=O)c1F)NC2(C)C` [Example 268, 7-(Difluoro-methoxy)-9-fluoro-8-(6-fluoro-1-methylsulfonyl-1H-indol-4-yl)-1,4,4-trimethyl-5H-[1,2,4]triazolo[4,3-a]quinoxaline], 1 to 15 µM.
Consider `COc1c(-c2cccc3c(C)c[nH]c23)c(F)cc2c1-n1c(C)nnc1C(C)(C)N2` [Example 270, 7-Fluoro-9-methoxy-1,4,4-trimethyl-8-(3-methyl-1H-indol-7-yl)-5H-[1,2,4]triazolo[4,3-a]quinoxaline], for which the IC50 or EC50 (agonist or antagonist mode not specified) lay within 0.1 to 1 µM.
`Cc1nnc2n1-c1c(cc(F)c(-c3cccc4c3cc(C(F)(F)F)n4S(C)(=O)=O)c1F)NC2(C)C` [Example 271, 7,9-Difluoro-1,4,4-trimethyl-8-[1-methylsulfonyl-2-(trifluoromethyl)-1H-indol-4-yl]-5H-[1,2,4]triazolo [4,3-a]quinoxaline]: the IC50 or EC50 (agonist or antagonist mode not specified) was 1 to 15 µM.
In the case of `Cc1c[nH]c2c(-c3c(Cl)cc4c(c3F)-n3c(C)nnc3C(C)(C)N4)cccc12` [Example 272, 7-Chloro-9-fluoro-1,4,4-trimethyl-8-(3-methyl-1H-indol-7-yl)-5H-[1,2,4]triazolo[4,3-a]quinoxaline], the IC50 or EC50 (agonist or antagonist mode not specified) was 0.1 to 1 µM.
With `Cc1nnc2n1-c1c(cc(OC(F)F)c(-c3cccc4c3cnn4C)c1F)NC2(C)C` [Example 273, 7-(Difluoro-methoxy)-9-fluoro-1,4,4-trimethyl-8-(1-methyl-1H-indazol-4-yl)-5H-[1,2,4]triazolo[4,3-a]quinoxaline], the IC50 or EC50 (agonist or antagonist mode not specified) fell in the range of 1 to 15 µM.
As to `Cc1nnc2n1-c1c(cc(OC(F)F)c(-c3cccc4c3ccn4S(C)(=O)=O)c1F)NC2(C)C` [Example 275, 7-(Difluoro-methoxy)-9-fluoro-1,4,4-trimethyl-8-(1-methylsulfonyl-1H-indol-4-yl)-5H-[1,2,4]triazolo[4,3-a]quinoxaline], the IC50 or EC50 (agonist or antagonist mode not specified) was 1 to 15 µM.
